From patent US9833497B2, “Human originated EGF domain proteins and use of the same” (CHENGDU SOURCEBIO LIMITED-LIABILITY COMPANY, priority 2013, dated 2017)

Experiments:
Assay type in all cases: cell-based
Citrobacter diversus = assay: MIC against Gram-negative bacteria: Citrobacter diversus; conditions: 5×10^5 CFU/mL; for MIC against C. diversus: 96-well plate, 37° C., 10 h
Summary of the method: (§1)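 Two-fold serial dilutions of each purified human EGF domain protein, three replicate wells per level, were combined with bacteria at a final 5×10^5 CFU/mL in LB. Cultures were shaken at 175 rpm, 37° C. The MIC was taken as the minimum concentration preventing growth.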

Aeromonas hydrophila = assay: MIC against Gram-negative bacteria: Aeromonas hydrophila; conditions: 5×10^5 CFU/mL; for MIC against A. hydrophila: 96-well plate, 37° C., 10 h
Summary of the method: as §1

E. coli BL21 = assay: MIC against Gram-negative bacteria: E. coli BL21; conditions: 5×10^5 CFU/mL; for MIC against E. coli BL21: 96-well plate, 37° C., 10 h
Summary of the method: as §1

Enterobacter cloacae = assay: MIC against Gram-negative bacteria: Enterobacter cloacae; conditions: 5×10^5 CFU/mL; for MIC against E. cloacae: 96-well plate, 37° C., 10 h
Summary of the method: as §1

Proteus vulgaris = assay: MIC against Gram-negative bacteria: Proteus vulgaris; conditions: 5×10^5 CFU/mL; for MIC against P. vulgaris: 96-well plate, 37° C., 10 h
Summary of the method: as §1

Moraxella catarrhalis = assay: MIC against Gram-negative bacteria: Moraxella catarrhalis; conditions: 5×10^5 CFU/mL; for MIC against M. catarrhalis: 96-well plate, 37° C., 10 h
Summary of the method: as §1

Proteus mirabilis = assay: MIC against Gram-negative bacteria: Proteus mirabilis; conditions: 5×10^5 CFU/mL; for MIC against P. mirabilis: 96-well plate, 37° C., 10 h
Summary of the method: as §1

Klebsiella pneumonia = assay: MIC against Gram-negative bacteria: Klebsiella pneumonia; conditions: 5×10^5 CFU/mL; for MIC against K. pneumonia: 96-well plate, 37° C., 10 h
Summary of the method: as §1

Serratia marcescens = assay: MIC against Gram-negative bacteria: Serratia marcescens; conditions: 5×10^5 CFU/mL; for MIC against S. marcescens: 96-well plate, 37° C., 10 h
Summary of the method: as §1

Pseudomonas aeruginosa = assay: MIC against Gram-negative bacteria: Pseudomonas aeruginosa; conditions: 5×10^5 CFU/mL; for MIC against P. aeruginosa: 96-well plate, 37° C., 10 h
Summary of the method: as §1

E. coli DH5α = assay: Antibacterial activity: MIC and growth curve against E. coli DH5α in 96-well plate; conditions: minimal inhibitory concentration against E. coli DH5α; 96-well plate, 5×10^5 CFU/mL, 37° C., judged after 8 h
Summary of the method: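 Log-phase bacteria (OD600 ~0.5) resuspended in LB at 5×10^5 CFU/mL, exposed to recombinant protein at 50, 25, 12.5 μg/mL final in triplicate, 37 °C shaking at 175 rpm. OD600 read every 30 min; MIC is lowest concentration showing no growth.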

[1] = 10 h cultivation at 37° C., two-fold serial dilution

Substance | MIC against C. diversus (Citrobacter diversus) [µg/mL] | MIC against A. hydrophila (Aeromonas hydrophila) [µg/mL] | MIC against E. coli BL21 (E. coli BL21) [µg/mL] | MIC against E. cloacae (Enterobacter cloacae) [µg/mL] | MIC against P. vulgaris (Proteus vulgaris) [µg/mL] | MIC against M. catarrhalis (Moraxella catarrhalis) [µg/mL] | MIC against P. mirabilis (Proteus mirabilis) [µg/mL] | MIC against K. pneumonia (Klebsiella pneumonia) [µg/mL] | MIC against S. marcescens (Serratia marcescens) [µg/mL] | MIC against P. aeruginosa (Pseudomonas aeruginosa) [µg/mL] | MIC (E. coli DH5α) [µg/mL] | other results
PRT546 (CDCHEAGTAPGVCDPLTGQCYCKENVQGPKCDQCSLGTFSLDAANPKGCTR; listed as Homo sapiens) | 12.5 | 50 | 50 | 12.5 | 25 | 50 | 12.5 | 50 | 50 | 12.5 | 12.5 | –
PRT456 (DIDECADSEACGEARCKNLPGSYSCLCDEGFAYSSQEKACR; listed as Homo sapiens) | 50 | 12.5 | 12.5 | 12.5 | 12.5 | 12.5 | 50 | 12.5 | 25 | 50 | 25 | –
PRT803 (HGKGCQLPCQCRHGASCDPRAGECLCAPGYTGVYCE; listed as Homo sapiens) | – | – | – | – | – | – | – | – | – | – | 50 | MIC (μg/mL) C. diversus (Citrobacter diversus; C. diversus, 10 h cultivation at 37° C.): 25 µg/mL; MIC (μg/mL) A. hydrophila (Aeromonas hydrophila; A. hydrophila, 10 h cultivation at 37° C.): 25 µg/mL; MIC (μg/mL) E. coli BL21 (E. coli BL21; E. coli BL21, 10 h cultivation at 37° C.): 50 µg/mL; MIC (μg/mL) E. cloacae (Enterobacter cloacae; E. cloacae, 10 h cultivation at 37° C.): 50 µg/mL; MIC (μg/mL) P. vulgaris (Proteus vulgaris; P. vulgaris, 10 h cultivation at 37° C.): 12.5 µg/mL; MIC (μg/mL) M. catarrhalis (Moraxella catarrhalis; M. catarrhalis, 10 h cultivation at 37° C.): 100 µg/mL; MIC (μg/mL) P. mirabilis (Proteus mirabilis; P. mirabilis, 10 h cultivation at 37° C.): 50 µg/mL; MIC (μg/mL) K. pneumonia (Klebsiella pneumonia; K. pneumonia, 10 h cultivation at 37° C.): 25 µg/mL; MIC (μg/mL) S. marcescens (Serratia marcescens; S. marcescens, 10 h cultivation at 37° C.): 50 µg/mL; MIC (μg/mL) P. aeruginosa (Pseudomonas aeruginosa; P. aeruginosa, 10 h cultivation at 37° C.): 12.5 µg/mL
PRT451 (SFYCSCRPGYKLMSDKRTCVDIDE; listed as Homo sapiens) | 12.5 | 50 | 50 | 25 | 50 | 50 | 12.5 | 12.5 | 12.5 | 25 | 25 | –
PRT1343 (VFHECFFNPCHNSGTCQQLGRGYVCLCPLGYTGLKCE; listed as Homo sapiens) | – | – | – | – | – | – | – | – | – | – | 12.5 | MIC against C. diversus (Citrobacter diversus; Citrobacter diversus): 50 µg/mL; MIC against A. hydrophila (Aeromonas hydrophila; Aeromonas hydrophila): 12.5 µg/mL; MIC against E. coli BL21 (E. coli BL21; E. coli BL21): 25 µg/mL; MIC against E. cloacae (Enterobacter cloacae; Enterobacter cloacae): 25 µg/mL; MIC against P. vulgaris (Proteus vulgaris; Proteus vulgaris): 25 µg/mL; MIC against M. catarrhalis (Moraxella catarrhalis; Moraxella catarrhalis): 25 µg/mL; MIC against P. mirabilis (Proteus mirabilis; Proteus mirabilis): 12.5 µg/mL; MIC against K. pneumonia (Klebsiella pneumonia; Klebsiella pneumonia): 25 µg/mL; MIC against S. marcescens (Serratia marcescens; Serratia marcescens): 50 µg/mL; MIC against P. aeruginosa (Pseudomonas aeruginosa; Pseudomonas aeruginosa): 50 µg/mL
PRT1082 (GTNPCSVNNGDCSQLCLPTSETTRSCMCTAGYSLRSGQQACE; listed as Homo sapiens) | – | – | – | – | – | – | – | – | – | – | 50 | MIC C. diversus (Citrobacter diversus; [1]): 25 µg/mL; MIC A. hydrophila (Aeromonas hydrophila; [1]): 12.5 µg/mL; MIC E. coli BL21 (E. coli BL21; [1]): 12.5 µg/mL; MIC E. cloacae (Enterobacter cloacae; [1]): 25 µg/mL; MIC P. vulgaris (Proteus vulgaris; [1]): 12.5 µg/mL; MIC M. catarrhalis (Moraxella catarrhalis; [1]): 50 µg/mL; MIC P. mirabilis (Proteus mirabilis; [1]): 25 µg/mL; MIC K. pneumonia (Klebsiella pneumonia; [1]): 50 µg/mL; MIC S. marcescens (Serratia marcescens; [1]): 25 µg/mL; MIC P. aeruginosa (Pseudomonas aeruginosa; [1]): 25 µg/mL
